Where two headings read alike, the source gives them in different places.

One assay has as its system MOLM-13 cells. Nature of the assay: Cell viability assay (CellTiter-Glo) in MOLM-13 cells. It counts as cell-based. The procedure:
(§1) Cell Culture: RS4;11, MV4;11, MOLM-13 and other cells were cultured at 37° C. with 5% CO2 in RPMI 1640 or DMEM Medium supplemented with 10% fetal bovine serum. Cells were authenticated using the short tandem repeat (STR) assays. Mycoplasma test results were negative.
Cell viability assays: Cells were seeded at a density of 5000 cells per well in 96-well assay plates and treated with test compounds following a 8-point or 12-point 3-fold serial dilution. Three days later, cell viability was determined using the CellTiter-Glo assay kit according to the manufacturer's instructions. The dose-response curves were determined and IC50 values were calculated using the GraphPad Prism software following a nonlinear regression (least squares fit) method. […]
(ATP-based viability assays read luminescence as a measure of living cells.)

The subject of a further assay is MV4;11 cells. Nature of the assay: Cell viability assay (CellTiter-Glo) in MV4;11 cells. It counts as cell-based. Conditions: read-out: MV4. The procedure: as §1
Cell viability assays: Cells were seeded at a density of 5000 cells per well in 96-well assay plates and treated with test compounds following a 8-point or 12-point 3-fold serial dilution. Three days later, cell viability was determined using the CellTiter-Glo assay kit according to the manufacturer's instructions. The dose-response curves were determined and IC50 values were calculated using the GraphPad Prism software following a nonlinear regression (least squares fit) method.
The IC50 values (nM) of each compound were determined in MV4;11 and MOLM-13 cells with or without gilteritinib (10 nM for MV4;11; and 20 nM for MOML-13) as described in the Materials and Methods subsection and calculated using the GraphPad Prism 5.0 software.

[1] abbreviates: Homo sapiens, 72 h, MOLM-13 cells, compound alone, three days, read-out: MOLM-13 IC50.
Where [2] appears, read: MOLM-13 cells, with gilteritinib, three days, read-out: MOLM-13 IC50 (nM) + 10 nM Gil.
The mark [3] stands for this setting: Homo sapiens, MV4-11, 72 h, MV4;11 cells, compound alone, three days, 11 IC50.
The mark [4] stands for this setting: MV4;11 cells, with 10 nM gilteritinib, three days, 11 IC50 (nM) + 10 nM Gil.
Setting [5] is: Homo sapiens, MOLM-13, 72 h, read-out: MOLM-13 IC50 (nM).
Where [6] appears, read: read-out: MOLM-13 IC50 (nM) + 10 nM Gil, MOLM-13 cells, with gilteritinib, three days.
[7] abbreviates: Homo sapiens, MV4-11, 72 h, 11 IC50 (nM).
The mark [8] stands for this setting: 11 IC50 (nM) + 10 nM Gil, MV4;11 cells, with 10 nM gilteritinib, three days.

For the compound `O=C1CCC(N2C(=O)c3ccc(NC[C@H]4C[C@H](n5cc(C6CCC(O)CC6)c(C6CC6)n5)C4)cc3C2=O)C(=O)N1` (stereo partly drawn) [GS-701, 5-(((Trans-3-(3-cyclopropyl-4-(4-hydroxycyclohexyl)-1H-pyrazol-1-yl)cyclobutyl)methyl)amino)-2-(2,6-dioxopiperidin-3-yl)isoindoline-1,3-dione], the IC50 with MOLM-13 cells (setting [1]) was in the range of 100 to 1000 nM; in the assay on MOLM-13 cells (setting [2]), 10 to 100 nM; in the assay with MV4;11 cells (setting [3]), 10 to 100 nM; in the assay with MV4;11 cells (setting [4]) it was 10 to 100 nM.
Take `CN(C)c1nc(-c2cn([C@H]3C[C@H](CNc4ccc5c(c4)C(=O)N(C4CCC(=O)NC4=O)C5=O)C3)nc2C2CC2)ccc1F` (stereo partly drawn) [GS-707, 5-(((Trans-3-(3-cyclopropyl-4-(6-(dimethylamino)-5-fluoropyridin-2-yl)-1H-pyrazol-1-yl)cyclobutyl)methyl)amino)-2-(2,6-dioxopiperidin-3-yl)isoindoline-1,3-dione]: the IC50 was 10 to 100 nM with MOLM-13 cells (setting [5]), 10 to 100 nM with MOLM-13 cells (setting [6]), 10 to 100 nM in the assay on MV4;11 cells (setting [7]) and less than 10 nM with MV4;11 cells (setting [8]). In addition, the “sensitization of AML cells to GSPT1 degraders by FLT3 inhibition” value in the assay with MOLM-13 cells (MOLM-13 cells, with or without 20 nM gilteritinib, 3 days) is “FLT3 inhibition sensitizes AML cells”.
In the case of `O=C1CCC(N2C(=O)c3ccc(NC[C@H]4C[C@H](n5cc(Nc6ccccc6)c(C6CC6)n5)C4)cc3C2=O)C(=O)N1` (stereo partly drawn) [GS-739, 5-(((Trans-3-(3-Cyclopropyl-4-(phenylamino)-1H-pyrazol-1-yl)cyclobutyl)methyl)amino)-2-(2,6-dioxopiperidin-3-yl)isoindoline-1,3-dione], the IC50 is 10 to 100 nM in the assay on MOLM-13 cells (setting [5]), less than 10 nM with MOLM-13 cells (setting [6]), 10 to 100 nM in the assay with MV4;11 cells (setting [7]) and less than 10 nM with MV4;11 cells (setting [8]).
For the compound `N[C@H]1C[C@@H](n2ncc3cnc(-c4cn([C@H]5C[C@H](CNc6ccc7c(c6)C(=O)N(C6CCC(=O)NC6=O)C7=O)C5)nc4C4CC4)cc32)C1` (stereo partly drawn) [GS-778, 5-(((Trans-3-(4-(1-(cis-3-aminocyclobutyl)-1H-pyrazolo[4,3-c]pyridin-6-yl)-3-cyclopropyl-1H-pyrazol-1-yl)cyclobutyl)methyl)amino)-2-(2,6-dioxopiperidin-3-yl)isoindoline-1,3-dione], the IC50 with MOLM-13 cells (setting [1]) was 10 to 100 nM; in the assay on MOLM-13 cells (setting [2]), less than 10 nM; with MV4;11 cells (setting [3]), 10 to 100 nM; with MV4;11 cells (setting [4]) it was less than 10 nM.
For `Cc1nc(-c2cn([C@H]3C[C@H](C#Cc4ccc5c(c4)CN(C4CCC(=O)NC4=O)C5=O)C3)nc2C2CC2)ccc1F` (stereo partly drawn) [GS-754, 3-(5-((Trans-3-(3-cyclopropyl-4-(5-fluoro-6-methylpyridin-2-yl)-1H-pyrazol-1-yl)cyclobutyl)ethynyl)-1-oxoisoindolin-2-yl)piperidine-2,6-dione], the IC50 in the assay with MOLM-13 cells (setting [1]) was greater than 1000 nM; in the assay on MOLM-13 cells (setting [2]), 100 to 1000 nM; in the assay on MV4;11 cells (setting [3]), greater than 1000 nM; with MV4;11 cells (setting [4]), 100 to 1000 nM.
As for `O=C1CCC(N2Cc3ccc(NC[C@H]4C[C@H](n5cc(-c6cnc7ccccc7n6)c(C6CC6)n5)C4)cc3C2=O)C(=O)N1` (stereo partly drawn) [GS-662, 3-(6-(((Trans-3-(3-cyclopropyl-4-(quinoxalin-2-yl)-1H-pyrazol-1-yl)cyclobutyl)methyl)amino)-1-oxoisoindolin-2-yl)piperidine-2,6-dione], the IC50 in the assay with MOLM-13 cells (setting [1]) and in the assay with MV4;11 cells (setting [3]) was greater than 1000 nM in each case.
In the case of `CC(C)n1ccc2c(-c3cn([C@H]4C[C@H](CNc5ccc6c(c5)C(=O)N(C5CCC(=O)NC5=O)C6=O)C4)nc3C3CC3)ncc(F)c21` (stereo partly drawn) [GS-769, 5-(((Trans-3-(3-cyclopropyl-4-(7-fluoro-1-isopropyl-1H-pyrrolo[3,2-c]pyridin-4-yl)-1H-pyrazol-1-yl)cyclobutyl)methyl)amino)-2-(2,6-dioxopiperidin-3-yl)isoindoline-1,3-dione], the IC50 in the assay on MOLM-13 cells (setting [1]), in the assay with MOLM-13 cells (setting [2]), in the assay with MV4;11 cells (setting [3]) and in the assay with MV4;11 cells (setting [4]) was less than 10 nM each time.
On to `Nc1cnc2c(c1)c(C1CC1)nn2[C@H]1C[C@H](CNc2ccc3c(c2)C(=O)N(C2CCC(=O)NC2=O)C3=O)C1` (stereo partly drawn) [GS-756, 5-(((Trans-3-(5-amino-3-cyclopropyl-1H-pyrazolo[3,4-b]pyridin-1-yl)cyclobutyl)methyl)amino)-2-(2,6-dioxopiperidin-3-yl)isoindoline-1,3-dione], for which the IC50 in the assay with MOLM-13 cells (setting [1]) and in the assay with MV4;11 cells (setting [3]) was greater than 1000 nM throughout.
On to `O=C1CCC(N2C(=O)c3ccc(NC[C@H]4C[C@H](n5cc(-c6cccc(N7CCC7)c6)c(C6CC6)n5)C4)cc3C2=O)C(=O)N1` (stereo partly drawn) [GS-653, 5-(((Trans-3-(4-(3-(azetidin-1-yl)phenyl)-3-cyclopropyl-1H-pyrazol-1-yl)cyclobutyl)methyl)amino)-2-(2,6-dioxopiperidin-3-yl)isoindoline-1,3-dione], for which the IC50 is greater than 1000 nM in the assay on MOLM-13 cells (setting [5]), 10 to 100 nM in the assay with MOLM-13 cells (setting [6]), 100 to 1000 nM in the assay on MV4;11 cells (setting [7]) and 10 to 100 nM in the assay on MV4;11 cells (setting [8]).
As to `Cn1ncc2cnc(-c3cn([C@H]4C[C@H](CCc5ccc6c(c5)C(=O)N(C5CCC(=O)NC5=O)C6=O)C4)nc3C3CC3)cc21` (stereo partly drawn) [GS-767, 5-(2-(Trans-3-(3-cyclopropyl-4-(1-methyl-1H-pyrazolo[4,3-c]pyridin-6-yl)-1H-pyrazol-1-yl)cyclobutyl)ethyl)-2-(2,6-dioxopiperidin-3-yl)isoindoline-1,3-dione], the IC50 is 100 to 1000 nM in the assay on MOLM-13 cells (setting [1]), 10 to 100 nM in the assay on MOLM-13 cells (setting [2]), 100 to 1000 nM with MV4;11 cells (setting [3]) and 10 to 100 nM with MV4;11 cells (setting [4]).
`CC(C)n1ncc2c(-c3cn([C@H]4C[C@H](CNc5ccc6c(c5)C(=O)N(C5CCC(=O)NC5=O)C6=O)C4)nc3C3CC3)ncc(F)c21` (stereo partly drawn) [GS-791, 5-(((Trans-3-(3-Cyclopropyl-4-(7-fluoro-1-isopropyl-1H-pyrazolo[4,3-c]pyridin-4-yl)-1H-pyrazol-1-yl)cyclobutyl)methyl)amino)-2-(2,6-dioxopiperidin-3-yl)isoindoline-1,3-dione]: the IC50 with MOLM-13 cells (setting [5]) was 10 to 100 nM; with MOLM-13 cells (setting [6]), 10 to 100 nM; with MV4;11 cells (setting [7]) it was less than 10 nM; with MV4;11 cells (setting [8]), less than 10 nM.
With `O=C1CCC(N2C(=O)c3ccc(NC[C@H]4C[C@H](n5cc(-c6cnc7ccc(N8CCC(O)C8)cc7n6)c(C6CC6)n5)C4)cc3C2=O)C(=O)N1` (stereo partly drawn) [GS-659, 5-(((Trans-3-(3-cyclopropyl-4-(7-(3-hydroxypyrrolidin-1-yl)quinoxalin-2-yl)-1H-pyrazol-1-yl)cyclobutyl)methyl)amino)-2-(2,6-dioxopiperidin-3-yl)isoindoline-1,3-dione], the IC50 in the assay on MOLM-13 cells (setting [1]), in the assay on MOLM-13 cells (setting [2]), in the assay with MV4;11 cells (setting [3]) and in the assay with MV4;11 cells (setting [4]) was less than 10 nM throughout.
In the case of `Cc1nc(-c2cn([C@H]3C[C@@H]3CNc3ccc4c(c3)C(=O)N(C3CCC(=O)NC3=O)C4=O)nc2C2CC2)ccc1F` (relative stereo) [GS-643, 5-(((Trans-2-(3-cyclopropyl-4-(5-fluoro-6-methylpyridin-2-yl)-1H-pyrazol-1-yl)cyclopropyl)methyl)amino)-2-(2,6-dioxopiperidin-3-yl)isoindoline-1,3-dione], the IC50 in the assay with MOLM-13 cells (setting [1]) and in the assay with MV4;11 cells (setting [3]) was greater than 1000 nM throughout.
With `Cc1cc(F)cnc1-c1cn([C@H]2C[C@H](CNc3ccc4c(c3)CN(C3CCC(=O)NC3=O)C4=O)C2)nc1C(F)F` (stereo partly drawn) [GS-668, 3-(5-(((Trans-3-(3-(difluoromethyl)-4-(5-fluoro-3-methylpyridin-2-yl)-1H-pyrazol-1-yl)cyclobutyl)methyl)amino)-1-oxoisoindolin-2-yl)piperidine-2,6-dione], the IC50 with MOLM-13 cells (setting [1]), with MOLM-13 cells (setting [2]), in the assay on MV4;11 cells (setting [3]) and in the assay with MV4;11 cells (setting [4]) was less than 10 nM throughout.
With `O=C1CCC(N2C(=O)c3ccc(NC[C@H]4C[C@H](n5cc(Cc6ccccc6)c(C6CC6)n5)C4)cc3C2=O)C(=O)N1` (stereo partly drawn) [GS-735, 5-(((Trans-3-(4-benzyl-3-cyclopropyl-1H-pyrazol-1-yl)cyclobutyl)methyl)amino)-2-(2,6-dioxopiperidin-3-yl)isoindoline-1,3-dione], the IC50 with MOLM-13 cells (setting [5]) is 10 to 100 nM; in the assay with MOLM-13 cells (setting [6]), less than 10 nM; in the assay on MV4;11 cells (setting [7]), 10 to 100 nM; with MV4;11 cells (setting [8]), less than 10 nM.
On to `N[C@H]1C[C@H](n2cc3cnc(-c4cn([C@H]5C[C@H](CNc6ccc7c(c6)C(=O)N(C6CCC(=O)NC6=O)C7=O)C5)nc4C4CC4)cc3n2)C1` (stereo partly drawn) [GS-786, 5-(((Trans-3-(4-(2-(trans-3-aminocyclobutyl)-2H-pyrazolo[4,3-c]pyridin-6-yl)-3-cyclopropyl-1H-pyrazol-1-yl)cyclobutyl)methyl)amino)-2-(2,6-dioxopiperidin-3-yl)isoindoline-1,3-dione], for which the IC50 in the assay with MOLM-13 cells (setting [1]) was 10 to 100 nM; with MOLM-13 cells (setting [2]) it was less than 10 nM; in the assay on MV4;11 cells (setting [3]) it was less than 10 nM; in the assay with MV4;11 cells (setting [4]), less than 10 nM.

(Values after patent US20250221988A1 (Cullgen (Shanghai), Inc., priority 2022, published 2025).)
